Data reported in patent publication US20180265515A1 (Genentech, Inc., priority 2015, published 2018).

How the values were obtained:
[1] = target: T1, isolated recombinant JAK2 kinase domain (Homo sapiens, UniProt O60674); assay: JAK2 enzyme assay (Caliper LabChip, Ki); type: biochemical; settings: 25 μM ATP
T1 construct: The activity of the isolated recombinant JAK1 and JAK2 kinase domain was measured
Outline: (§1)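 Recombinant JAK1 or JAK2 kinase domain phosphorylating a 5-carboxyfluorescein-labelled JAK3-derived peptide, 30 min at 22° C, stopped with EDTA. Phosphorylated fraction of substrate quantified by Caliper LabChip microfluidic separation. Ki from Morrison tight-binding model corrected for ATP competition (Ki=Ki,app/(1+[ATP]/Km,app)).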

[2] = target: T2, isolated recombinant JAK1 kinase domain (Homo sapiens, UniProt P23458); assay: JAK1 enzyme assay (Caliper LabChip, Ki); type: biochemical; settings: recombinant JAK1 kinase domain, 25 μM ATP
T2 construct: The activity of the isolated recombinant JAK1 and JAK2 kinase domain was measured
T2 sequence (P23458 875-1153 limits assumed): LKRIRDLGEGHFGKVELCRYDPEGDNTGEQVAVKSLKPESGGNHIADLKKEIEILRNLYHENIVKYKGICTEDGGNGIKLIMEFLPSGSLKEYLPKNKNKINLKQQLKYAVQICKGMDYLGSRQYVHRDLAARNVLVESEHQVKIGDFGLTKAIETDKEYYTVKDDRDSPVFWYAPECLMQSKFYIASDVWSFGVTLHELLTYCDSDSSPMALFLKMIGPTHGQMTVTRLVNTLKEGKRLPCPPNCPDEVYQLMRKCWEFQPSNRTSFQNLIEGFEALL
Outline: as §1

[3] = test system: JAK1-dependent STAT6 phosphorylation downstream of IL-13 stimulation in BEAS-2B human bronchial epithelial cells; assay: JAK1 pathway assay in BEAS-2B cells (IL-13 stimulated STAT6 phosphorylation, MSD); type: cell-based; settings: read-out: P-STAT6 BEAS2B + IL13 IC50
Outline: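 BEAS-2B human bronchial epithelial cells, plated the day before in complete growth medium, were preincubated with compound for 1 hr at 37° C (0.2% DMSO final), then stimulated with IL-13 at its EC90 for 15 min. STAT6 phosphorylation in lysates was read by MSD; EC50 was taken as 50% inhibition versus DMSO control.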

T1 sequence (O60674 849-1124 limits assumed): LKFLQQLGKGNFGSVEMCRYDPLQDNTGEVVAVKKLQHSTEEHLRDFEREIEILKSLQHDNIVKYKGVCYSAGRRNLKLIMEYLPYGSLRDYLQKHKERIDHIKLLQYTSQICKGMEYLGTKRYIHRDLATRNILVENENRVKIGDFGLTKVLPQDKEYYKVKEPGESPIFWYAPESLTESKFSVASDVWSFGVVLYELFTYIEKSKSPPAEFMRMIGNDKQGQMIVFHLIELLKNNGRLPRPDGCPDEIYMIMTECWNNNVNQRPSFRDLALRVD

| SMILES | Ki [1] [nM] | Ki [2] [nM] | IC50 [3] [nM] |
| --- | --- | --- | --- |
| CSc1ccc(OC(F)F)c(-c2nn(Cc3cn(C4CCN(C5CCOC5)CC4)nn3)cc2NC(=O)c2cnn3cccnc23)c1 (stereo not drawn) [Example 96, N-[3-[2-(difluoromethoxy)-5-methylsulfanyl-phenyl]-1-[[1-(1-tetrahydrofuran-3-yl-4-piperidyl)triazol-4-yl]methyl]pyrazol-4-yl]pyrazolo[1,5-a]pyrimidine-3-carboxamide] | 0.2 | 0.3 | 14 |
| CSc1ccc(OC(F)F)c(-c2nn(CC(=O)N3CCC(CN4CCN(CC(=O)N(C)C)[C@H](C)C4)CC3)cc2NC(=O)c2cnn3cccnc23)c1 [Example 97, N-[3-[2-(difluoromethoxy)-5-methylsulfanyl-phenyl]-1-[2-[4-[[(3R)-4-[2-(dimethylamino)-2-oxo-ethyl]-3-methyl-piperazin-1-yl]methyl]-1-piperidyl]-2-oxo-ethyl]pyrazol-4-yl]pyrazolo[1,5-a]pyrimidine-3-carboxamide] | 0.62 | 0.38 | 30 |
| CSc1ccc(OC(F)F)c(-c2nn(CC(=O)N3CCC(CN4C[C@@H](C)N(CC(=O)N(C)C)C[C@@H]4C)CC3)cc2NC(=O)c2cnn3cccnc23)c1 [Example 98, N-[3-[2-(difluoromethoxy)-5-methylsulfanyl-phenyl]-1-[2-[4-[[(2S,5R)-4-[2-(dimethylamino)-2-oxo-ethyl]-2,5-dimethyl-piperazin-1-yl]methyl]-1-piperidyl]-2-oxo-ethyl]pyrazol-4-yl]pyrazolo[1,5-a]pyrimidine-3-carboxamide] | 1.2 | 0.64 | 37 |
| CSc1ccc(OC(F)F)c(-c2nn(CC(=O)N3CCN([C@H]4CC[C@@H](C#N)CC4)CC3)cc2NC(=O)c2cnn3cccnc23)c1 [Example 99, N-[1-[2-[4-(4-cyanocyclohexyl)piperazin-1-yl]-2-oxo-ethyl]-3-[2-(difluoromethoxy)-5-methylsulfanyl-phenyl]pyrazol-4-yl]pyrazolo[1,5-a]pyrimidine-3-carboxamide] | 0.56 | 0.38 | 9.5 |

Second part, led by results:

| Ki [1] [nM] | Ki [2] [nM] | SMILES | IC50 [3] [nM] |
| --- | --- | --- | --- |
| 0.6 | 0.41 | CSc1ccc(OC(F)F)c(-c2nn(CC(=O)N3CCN([C@H]4CC[C@H](C#N)CC4)CC3)cc2NC(=O)c2cnn3cccnc23)c1 [Example 100, N-[1-[2-[4-(4-cyanocyclohexyl)piperazin-1-yl]-2-oxo-ethyl]-3-[2-(difluoromethoxy)-5-methylsulfanyl-phenyl]pyrazol-4-yl]pyrazolo[1,5-a]pyrimidine-3-carboxamide] | 9.4 |
| 0.093 | 0.2 | CC(C)Sc1ccc(OC(F)F)c(-c2n[nH]cc2NC(=O)c2cnn3cccnc23)c1 [Example 101, N-[3-[2-(difluoromethoxy)-5-(propan-2-ylsulfanyl)phenyl]-1H-pyrazol-4-yl]pyrazolo[1,5-a]pyrimidine-3-carboxamide] | 3.7 |
| 0.85 | 0.38 | CC(C)Sc1ccc(OC(F)F)c(-c2nn(CC(=O)N3CCC(N4CCOCC4)CC3)cc2NC(=O)c2cnn3cccnc23)c1 [Example 102, N-[3-[2-(difluoromethoxy)-5-isopropylsulfanyl-phenyl]-1-[2-(4-morpholino-1-piperidyl)-2-oxo-ethyl]pyrazol-4-yl]pyrazolo[1,5-a]pyrimidine-3-carboxamide] | 20 |
| 0.75 | 0.33 | CC(C)Sc1ccc(OC(F)F)c(-c2nn(CC(=O)N3CCN(CCCC#N)CC3)cc2NC(=O)c2cnn3cccnc23)c1 [Example 103, N-[1-[2-[4-(3-cyanopropyl)piperazin-1-yl]-2-oxo-ethyl]-3-[2-(difluoromethoxy)-5-isopropylsulfanyl-phenyl]pyrazol-4-yl]pyrazolo[1,5-a]pyrimidine-3-carboxamide] | 41 |
